Source: patent US20260365692A1, “COMPOSITIONS COMPRISING PROTEINS DISSOLVED IN FLUORINATED SOLVENTS, AND METHODS OF MAKING AND USING THE SAME” (priority 2022, published 2026)

Assays:
BSA [1] = target: T1, BSA (Bos taurus, UniProt P02769); test: Isothermal titration calorimetry, BSA; type: binding, bovine
Excerpt: (§1) To test this assertion, PFNA binding to three exemplary proteins, BSA, β-Gal and IgG, was studied via isothermal titration calorimetry (ITC) and surface plasmon resonance (SPR) techniques. […] SPR analysis yielded similar results, with sensorgrams (FIGS. 14J-14L) that diverged from a simple 1:1 ligand-protein model. […] Similar phenomenon may explain the negative signals of the SPR data and further support the ability of PFNA to modulate the conformational plasticity of adsorbed proteins.

β-gal [2] = test: Isothermal titration calorimetry, β-Gal; type: binding
Excerpt: as §1

IgG = test: Isothermal titration calorimetry, IgG; type: binding, rabbit
Excerpt: as §1

BSA [3] = target: T1, BSA; test: Surface plasmon resonance, BSA; type: binding, bovine; settings: after reference correction
Excerpt: (§2) FIGS. 14A-14L depict circular dichroism spectra of Hb (FIG. 14A), GFP (FIG. 14B), BSA (FIG. 14C), β-Gal (FIG. 14D), rabbit serum IgG (FIG. 14E), transferrin (FIG. 14F), and urease (FIG. 14G) in the absence (black line) or presence (dashed lines) of PFNA. Increasing dash sequence indicated higher concentration of PFNA. FIG. 14H: Change in molar ellipticity at 216 nm (Δθ216) of PFNA-treated proteins, relative to native controls, as a function of increasing ligand concentration. FIG. 14I: Percentage change in secondary structural motifs of Hb, β-Gal and IgG between the native protein and 1 mM PFNA treated samples. β-sheet structures were further differentiated into parallel and antiparallel conformations. Hb, β-Gal and IgG were prioritized for analysis based on their significant spectral shift in the presence of 1 mM PFNA. FIGS. 14J-14L: Sensograms for BSA (FIG. 14J), β-gal (FIG. 14K), and IgG (FIG. 14L) showing relative response (R.U.) at 10, 25, 50, 75, and 100 μM.
(§3) To test this assertion, PFNA binding to three exemplary proteins, BSA, β-Gal and IgG, was studied via isothermal titration calorimetry (ITC) and surface plasmon resonance (SPR) techniques. […] SPR analysis yielded similar results, with sensorgrams (FIGS. 14J-14L) that diverged from a simple 1:1 ligand-protein model. […]

β-gal [4] = test: Surface plasmon resonance, β-Gal; type: binding; settings: after reference correction
Excerpt: as §2, §3

TFN = TFN (Bos taurus, UniProt Q29443); test: 19F NMR of PFNA with TFN; type: binding, bovine
Excerpt: This further supported the conclusion that, like TFE, adsorption of PFNA to protein surfaces aligned the fluorinated tail parallel to the solvent accessible exterior, with further stabilization via F . . . H bonding with surface N—H groups (FIG. 12, FIGS. 12A-12E, and FIG. 13). This ultimately generated the fluorine rich coating that altered water accessibility and promoted secondary structure.

BSA [5] = target: T1, BSA; test: FTIR of BSA eluted from PFOc into PBS; set-up: species or system bovine; settings: dispersed BSA extracted from PFOc into PBS
Protocol: FIG. 47 depicts stacked FTIR spectra of PD-7, BSA and the PD-7:BSA complex after elution into PBS.
To test this assertion, Fourier transform infrared (FTIR) spectroscopy was performed on BSA samples following extraction of the PD-7 dispersed protein from PFOc into a physiologic buffer. Selected model protein BSA was diluted to […], and PFNA was diluted to 2 mM in PBS. The intermolecular interactions were initiated by adding an equal amount of BSA and PFNA samples into a centrifuge tube. After 1-hour incubation, samples were frozen at −80 °C, and lyophilize overnight to remove water. FTIR spectrometry was then performed on powdered samples using LN-MCT detector (4000-800 cm-1, backward output). Data is represented by average+−SD of wavenumber among replicates depicting corresponding characteristic bonds. An equal volume of PBS was added to the BSA:PD-7 sample in PFOc, and vortexing the phase separated mixture for ~2 seconds.

[6] = β-Gal activity after hydrochloric acid exposure; type: physicochemical; settings: β-Gal in PFOc
Protocol: FIGS. 54A-54C depict the relative activity of the β-Gal protein dispersed in PBS or PFOc solvents without and with contamination by (FIG. 54A) proteinase K, (FIG. 54B) bleach or (FIG. 54C) hydrochloric acid. Data shown as average±s.d. of n=3 technical replicates. Statistical significance between conditions is indicated by a line using unpaired Student's t-test with n.s.=not significant, * p<0.05, ** p<0.01, and *** p<0.001.
Here, stock of lyophilized β-Gal was prepared then dispersed in PBS or PFOc. A small volumetric quantity (1% v/v) of 10% bleach was added to the protein samples. Immediately, an equal volume of PBS containing 4 mg/mL ONPG substrate was added to the sample and incubated for 5 minutes to allow for complete substrate conversion. Last, absorbance was taken at 420 nm on the eluted samples, and relative activity was calculated by normalizing absorbance of converted ONPG in oxidizer-treated samples against their corresponding untreated group. […] Here, stock of lyophilized B-Gal was prepared then dispersed in PBS or PFOc. A small volumetric quantity (4% v/v) of 0.1 M HCl was added to the protein samples. After 30 seconds incubation, PBS containing 4 mg/mL ONPG was added to each of the samples to elute and start substrate conversion. After 3-minute conversion, the eluted samples were retrieved, and absorbance was read at 420 nm. […]

[7] = Pharmacokinetics of β-Gal formulations in C57BL/6 mice (Example 4); type: in vivo; settings: i.v.
Excerpt: FIG. 55 depicts time-dependent enzymatic activity of β-Gal in plasma delivered systemically in either saline (β-GalSaline) or extracted PFOc (β-GalExt. PFOc). Data shown as average±s.d. of n=5 technical replicates. Statistical significance determined using Student's t-test and represented as n.s.=not significant, * p<0.05.
To test whether PD-7 coating and PFOc dispersion influences the pharmacokinetic properties of formulated proteins, f-Gal formulations were intravenously administered to C57BL/6 mice and monitored time dependent serum bioavailability (FIG. 55). This experiment utilized a fluorescent conversion substrate to monitor the amount of functional protein in serum, thereby investigating changes to both bioavailability and bioactivity. Due to the large solution volumes administered (150 μL, ~15% of mouse blood volume), PFOc dispersed proteins were extracted into sterile saline before injection to avoid hyponatremia. Future applications in larger mammals would allow direct injection of the fluorous dispersion, without pre-extraction, due to the increased blood volumes and bio-inert nature of most perfluorocarbon solvents. […] However, variance in the data yielded statistical significance only at the t=0 hr and t=3 hr time points.

T1 sequence (P02769 25-607): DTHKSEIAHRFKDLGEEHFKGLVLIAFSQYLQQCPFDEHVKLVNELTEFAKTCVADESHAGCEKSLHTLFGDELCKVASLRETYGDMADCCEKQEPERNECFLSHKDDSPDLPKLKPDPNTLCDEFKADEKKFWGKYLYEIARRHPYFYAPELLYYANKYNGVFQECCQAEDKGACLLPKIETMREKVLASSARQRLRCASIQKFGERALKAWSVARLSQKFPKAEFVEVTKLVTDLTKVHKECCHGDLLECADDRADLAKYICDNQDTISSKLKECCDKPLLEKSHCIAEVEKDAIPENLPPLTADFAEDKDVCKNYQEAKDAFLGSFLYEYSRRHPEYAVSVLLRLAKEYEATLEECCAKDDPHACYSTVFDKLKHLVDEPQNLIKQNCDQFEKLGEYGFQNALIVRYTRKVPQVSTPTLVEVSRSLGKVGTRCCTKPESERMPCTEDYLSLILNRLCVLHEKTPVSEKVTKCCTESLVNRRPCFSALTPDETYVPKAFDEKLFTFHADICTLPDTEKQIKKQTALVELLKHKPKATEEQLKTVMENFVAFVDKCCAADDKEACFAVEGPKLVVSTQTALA
Chain of TFN (Q29443 20-704): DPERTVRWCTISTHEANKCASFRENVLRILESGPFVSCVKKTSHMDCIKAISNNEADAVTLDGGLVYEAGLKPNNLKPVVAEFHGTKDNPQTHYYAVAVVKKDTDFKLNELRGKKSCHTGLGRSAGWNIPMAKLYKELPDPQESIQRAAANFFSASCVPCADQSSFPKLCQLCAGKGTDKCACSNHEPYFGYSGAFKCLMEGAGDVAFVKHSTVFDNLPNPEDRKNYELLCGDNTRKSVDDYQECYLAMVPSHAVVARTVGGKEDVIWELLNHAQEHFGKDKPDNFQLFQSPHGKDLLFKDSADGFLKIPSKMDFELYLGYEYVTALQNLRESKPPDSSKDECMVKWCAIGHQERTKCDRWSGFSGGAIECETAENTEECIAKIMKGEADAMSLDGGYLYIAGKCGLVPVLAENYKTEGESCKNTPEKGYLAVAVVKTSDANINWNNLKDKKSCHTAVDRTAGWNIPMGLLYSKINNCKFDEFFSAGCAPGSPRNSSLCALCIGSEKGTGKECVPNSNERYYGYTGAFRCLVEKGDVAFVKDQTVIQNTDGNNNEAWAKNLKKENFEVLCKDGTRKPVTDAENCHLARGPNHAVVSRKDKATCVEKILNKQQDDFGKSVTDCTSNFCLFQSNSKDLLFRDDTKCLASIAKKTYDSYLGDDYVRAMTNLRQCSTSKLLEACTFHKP

Molecule	evolution of heat (ITC) (BSA [1])	evolution of heat (ITC) (β-gal [2])	evolution of heat (ITC) (IgG)	SPR response (BSA [3])	SPR response (β-gal [4])	19F NMR peak change upon interaction (TFN)	dispersant spectral feature after extraction into physiologic buffer/PBS (BSA [5])	β-Gal activity versus PBS controls ([6]; HCl)	loss in functionality ([6]; HCl (4% v/v of 0.1 M), few minutes)	serum half-life t1/2 ([7]; native β-Gal administered in saline)	serum half-life t1/2 ([7]; β-Gal from PFOc formulations, extracted into saline)
O=C(O)C(F)(F)C(F)(F)C(F)(F)C(F)(F)C(F)(F)C(F)(F)C(F)(F)C(F)(F)F [Compound 7, perfluoronanonic acid]	no significant evolution of heat	no significant evolution of heat	no significant evolution of heat	negative responses	negative responses	broadening of PFNA's peaks	showed the presence of C—F stretching vibrations (1500-1000 cm-1)				
β-Gal: β-Galactosidase (β-Gal), dissolved in PBS/saline or dispersed in PFOc								statistically higher than that of PBS controls	≥ 50%	7.2 min	30 min
